Results from the NIST ThermoML archive (doi:10.1016/j.jct.2015.01.007).
Numbers after ± are expanded uncertainties.

Assay: molar heat capacity at constant pressure
Conditions: 101.33 kPa, Crystal 1

O=P([O-])([O-])[O-].[Fe+2].[Li+] [iron(II) lithium phosphate]
Conditions | molar heat capacity at constant pressure [J/K/mol]
66.42 K, relaxation calorimetry | 28.2 ± 1.1
67.51 K, relaxation calorimetry | 28.84 ± 1.2
68.59 K, relaxation calorimetry | 29.48 ± 1.2
69.68 K, relaxation calorimetry | 30.12 ± 1.2
70 K, combination of DSC and relaxation calorimetry | 30.31 ± 1.2
70.77 K, relaxation calorimetry | 30.78 ± 1.2
71.15 K, relaxation calorimetry | 31.26 ± 1.3
73.24 K, relaxation calorimetry | 32.53 ± 1.3
75.34 K, relaxation calorimetry | 33.86 ± 1.4
77.43 K, relaxation calorimetry | 35.17 ± 1.4
79.53 K, relaxation calorimetry | 36.46 ± 1.5
80 K, combination of DSC and relaxation calorimetry | 36.84 ± 1.5
81.62 K, relaxation calorimetry | 37.8 ± 1.5
83.72 K, relaxation calorimetry | 39.15 ± 1.6
85.81 K, relaxation calorimetry | 40.41 ± 1.6
87.9 K, relaxation calorimetry | 41.69 ± 1.7
90 K, combination of DSC and relaxation calorimetry | 43.39 ± 1.8
90 K, relaxation calorimetry | 42.91 ± 1.7
92.09 K, relaxation calorimetry | 44.24 ± 1.8
94.19 K, relaxation calorimetry | 45.59 ± 1.9
96.28 K, relaxation calorimetry | 46.89 ± 1.9
98.38 K, relaxation calorimetry | 48.18 ± 2
100 K, combination of DSC and relaxation calorimetry | 49.48 ± 2
100.47 K, relaxation calorimetry | 49.44 ± 2
102.56 K, relaxation calorimetry | 50.67 ± 2.1
104.65 K, relaxation calorimetry | 52.08 ± 2.1
106.73 K, relaxation calorimetry | 53.17 ± 2.2
108.85 K, relaxation calorimetry | 54.37 ± 2.2
110 K, combination of DSC and relaxation calorimetry | 55.21 ± 2.2
110.94 K, relaxation calorimetry | 55.54 ± 2.3
113.02 K, relaxation calorimetry | 56.62 ± 2.3
115.13 K, relaxation calorimetry | 58.05 ± 2.4
117.22 K, relaxation calorimetry | 59.3 ± 2.4
119.27 K, relaxation calorimetry | 60.39 ± 2.5
119.96 K, relaxation calorimetry | 60.87 ± 2.5
120 K, combination of DSC and relaxation calorimetry | 60.65 ± 2.5
120.69 K, relaxation calorimetry | 61.12 ± 2.5
121.4 K, relaxation calorimetry | 61.55 ± 2.5
122.12 K, relaxation calorimetry | 61.93 ± 2.5
122.83 K, relaxation calorimetry | 62.24 ± 2.5
123.54 K, relaxation calorimetry | 62.63 ± 2.5
124.25 K, relaxation calorimetry | 63.1 ± 2.6
124.96 K, relaxation calorimetry | 63.45 ± 2.6
125.68 K, relaxation calorimetry | 63.84 ± 2.6
126.36 K, relaxation calorimetry | 64.12 ± 2.6
127.07 K, relaxation calorimetry | 64.49 ± 2.6
127.81 K, relaxation calorimetry | 64.96 ± 2.6
130 K, combination of DSC and relaxation calorimetry | 65.85 ± 2.7
131.36 K, relaxation calorimetry | 66.82 ± 2.7
140 K, combination of DSC and relaxation calorimetry | 70.83 ± 2.9
141.32 K, relaxation calorimetry | 71.82 ± 2.9
150 K, combination of DSC and relaxation calorimetry | 75.59 ± 3.1
151.46 K, relaxation calorimetry | 76.8 ± 3.1
160 K, combination of DSC and relaxation calorimetry | 80.13 ± 3.2
161.54 K, relaxation calorimetry | 81.23 ± 3.3
170 K, combination of DSC and relaxation calorimetry | 84.45 ± 3.4
171.6 K, relaxation calorimetry | 85.36 ± 3.5
180 K, combination of DSC and relaxation calorimetry | 88.56 ± 3.6
181.68 K, relaxation calorimetry | 89.21 ± 3.6
190 K, combination of DSC and relaxation calorimetry | 92.44 ± 3.8
191.78 K, relaxation calorimetry | 93.16 ± 3.8
200 K, combination of DSC and relaxation calorimetry | 96.11 ± 3.9
201.84 K, relaxation calorimetry | 97.49 ± 4
210 K, combination of DSC and relaxation calorimetry | 99.57 ± 4
211.78 K, relaxation calorimetry | 100.3 ± 4.1
220 K, combination of DSC and relaxation calorimetry | 102.8 ± 4.2
222.01 K, relaxation calorimetry | 103.27 ± 4.2
230 K, combination of DSC and relaxation calorimetry | 105.9 ± 4.3
232.1 K, relaxation calorimetry | 105.66 ± 4.3
240 K, combination of DSC and relaxation calorimetry | 108.7 ± 4.4
242.04 K, relaxation calorimetry | 108.22 ± 4.4
250 K, combination of DSC and relaxation calorimetry | 111.4 ± 4.5
252.15 K, relaxation calorimetry | 110.6 ± 4.5
260 K, combination of DSC and relaxation calorimetry | 113.9 ± 4.6
262.34 K, relaxation calorimetry | 112.67 ± 4.6
270 K, combination of DSC and relaxation calorimetry | 116.3 ± 4.7
272.43 K, relaxation calorimetry | 114.97 ± 4.7
280 K, combination of DSC and relaxation calorimetry | 118.4 ± 4.8
282.56 K, relaxation calorimetry | 117.79 ± 4.8
284.9 K, Small sample (50 mg) DSC | 120.8 ± 3
290 K, combination of DSC and relaxation calorimetry | 120.5 ± 4.9
292.55 K, relaxation calorimetry | 120.06 ± 4.9
293.2 K, Large sample (1 g) DSC | 120.85 ± 3
294.8 K, Small sample (50 mg) DSC | 122.5 ± 3
298.15 K, combination of DSC and relaxation calorimetry | 122.1 ± 5
300 K, combination of DSC and relaxation calorimetry | 122.4 ± 5
302.7 K, relaxation calorimetry | 120.5 ± 4.9
304.6 K, Small sample (50 mg) DSC | 126.1 ± 3.1
313.2 K, Large sample (1 g) DSC | 125.4 ± 3.1
314.5 K, Small sample (50 mg) DSC | 128.2 ± 3.1
320 K, combination of DSC and relaxation calorimetry | 129 ± 5.2
324.4 K, Small sample (50 mg) DSC | 129.7 ± 3.2
333.2 K, Large sample (1 g) DSC | 128 ± 3.1
334.4 K, Small sample (50 mg) DSC | 132.2 ± 3.2
340 K, combination of DSC and relaxation calorimetry | 133.4 ± 5.4
344.3 K, Small sample (50 mg) DSC | 134.8 ± 3.3
353.2 K, Large sample (1 g) DSC | 130.1 ± 3.2
354.2 K, Small sample (50 mg) DSC | 136.3 ± 3.3
360 K, combination of DSC and relaxation calorimetry | 137.6 ± 5.6
364.1 K, Small sample (50 mg) DSC | 137.9 ± 3.4
374 K, Small sample (50 mg) DSC | 140.2 ± 3.4
380 K, combination of DSC and relaxation calorimetry | 141.6 ± 5.8
383.9 K, Small sample (50 mg) DSC | 142.9 ± 3.5
393.8 K, Small sample (50 mg) DSC | 145.5 ± 3.6
400 K, combination of DSC and relaxation calorimetry | 145.3 ± 5.9
403.8 K, Small sample (50 mg) DSC | 147 ± 3.6
413.7 K, Small sample (50 mg) DSC | 148.9 ± 3.6
420 K, combination of DSC and relaxation calorimetry | 148.7 ± 6
423.6 K, Small sample (50 mg) DSC | 150.3 ± 3.7
433.5 K, Small sample (50 mg) DSC | 151.6 ± 3.7
440 K, combination of DSC and relaxation calorimetry | 151.9 ± 6.2
443.4 K, Small sample (50 mg) DSC | 152.8 ± 3.7
453.3 K, Small sample (50 mg) DSC | 154 ± 3.8
460 K, combination of DSC and relaxation calorimetry | 154.9 ± 6.3
463.3 K, Small sample (50 mg) DSC | 155 ± 3.8
473.2 K, Small sample (50 mg) DSC | 156.3 ± 3.8
480 K, combination of DSC and relaxation calorimetry | 157.7 ± 6.4
483.1 K, Small sample (50 mg) DSC | 157.5 ± 3.9
493 K, Small sample (50 mg) DSC | 159 ± 3.9
500 K, combination of DSC and relaxation calorimetry | 160.3 ± 6.5
502.9 K, Small sample (50 mg) DSC | 160 ± 3.9
512.8 K, Small sample (50 mg) DSC | 161 ± 3.9
520 K, combination of DSC and relaxation calorimetry | 162.7 ± 6.6
522.7 K, Small sample (50 mg) DSC | 162.2 ± 4
532.6 K, Small sample (50 mg) DSC | 163.4 ± 4
540 K, combination of DSC and relaxation calorimetry | 164.9 ± 6.7
542.5 K, Small sample (50 mg) DSC | 165 ± 4
552.4 K, Small sample (50 mg) DSC | 166.2 ± 4.1
560 K, combination of DSC and relaxation calorimetry | 167 ± 6.8
562.3 K, Small sample (50 mg) DSC | 167.1 ± 4.1
572.3 K, Small sample (50 mg) DSC | 168.3 ± 4.1
580 K, combination of DSC and relaxation calorimetry | 169 ± 6.9
582.2 K, Small sample (50 mg) DSC | 169.6 ± 4.2
592.1 K, Small sample (50 mg) DSC | 170.4 ± 4.2
600 K, combination of DSC and relaxation calorimetry | 170.9 ± 6.9
602 K, Small sample (50 mg) DSC | 171.1 ± 4.2
611.9 K, Small sample (50 mg) DSC | 173 ± 4.2
620 K, combination of DSC and relaxation calorimetry | 172.8 ± 7
621.8 K, Small sample (50 mg) DSC | 173.6 ± 4.3
631.7 K, Small sample (50 mg) DSC | 174.2 ± 4.3
640 K, combination of DSC and relaxation calorimetry | 174.5 ± 7.1
641.6 K, Small sample (50 mg) DSC | 174.9 ± 4.3
651.6 K, Small sample (50 mg) DSC | 175.7 ± 4.3
660 K, combination of DSC and relaxation calorimetry | 176.3 ± 7.2
661.5 K, Small sample (50 mg) DSC | 176.8 ± 4.3
671.8 K, Small sample (50 mg) DSC | 177.4 ± 4.3
680 K, combination of DSC and relaxation calorimetry | 178.1 ± 7.2
681.3 K, Small sample (50 mg) DSC | 178 ± 4.4
691.3 K, Small sample (50 mg) DSC | 178.7 ± 4.4
700 K, combination of DSC and relaxation calorimetry | 179.8 ± 7.3
701.2 K, Small sample (50 mg) DSC | 179.4 ± 4.4
711.1 K, Small sample (50 mg) DSC | 180.6 ± 4.4
720 K, combination of DSC and relaxation calorimetry | 181.6 ± 7.4
721 K, Small sample (50 mg) DSC | 181.6 ± 4.4
730.9 K, Small sample (50 mg) DSC | 182.4 ± 4.5
740 K, combination of DSC and relaxation calorimetry | 183.5 ± 7.5
740.8 K, Small sample (50 mg) DSC | 183.5 ± 4.5
750.8 K, Small sample (50 mg) DSC | 184.5 ± 4.5
760 K, combination of DSC and relaxation calorimetry | 185.5 ± 7.5
760.7 K, Small sample (50 mg) DSC | 185.7 ± 4.5
770.6 K, Small sample (50 mg) DSC | 186.9 ± 4.6
